The values that follow come from patent US20030113385A1, “Use of combinations of active agents consisting of antimicrobially active substances and plant extracts containing terpene in veterinary medicine” (Boehringer Ingelheim Vetmedica GmbH, priority 1998, published 2003).

For test [1], the system named is Staphylococcus aureus. Nature of the test: MIC on growth of Staphylococcus aureus in nutrient solution (ISB), microtitre plates, turbidity. The class given is cell-based. Conditions: for MIC: Staphylococcus aureus, read-out: average MIC (+standard deviation). How it is done: (§1) The sensitivity tests and the experiments carried out with combinations of active agents—using the so-called Checkerboard design—in broth (nutrient medium) and milk, were carried out using microtitre plates. Three capsule-positive and three capsule-negative strains of Staphylococcus aureus were used. The so-called MIC value was determined by fluorometric methods (in milk).
(§2) The concentration of the standard solution of the tea tree oil used was 4% vol/vol.
(§3) The highest concentration used in the tests was 1/10th of the original standard solution, i.e. 0.4 vol-%.
1 Effect of tea tree oil (Ttoil) on the growth of Staphylococcus aureus in nutrient solution (ISB).
The results are given as the average minimum inhibitory concentration from four repeats
(§4) 3 Susceptibility of Staphylococcus aureus to selected antibacterial agents in nutrient medium (ISB) and milk. […] Each strain was tested […].

Test [2] relates to Staphylococcus aureus. Description: MIC on growth of Staphylococcus aureus in milk, microtitre plates, fluorometric. The class given is cell-based. Conditions: for MIC: Staphylococcus aureus, read-out: average MIC (+standard deviation). As to the method:
as §1, §2, §3
2 Effect of tea tree oil on the growth of Staphylococcus aureus in normal milk. Each strain was tested four times.
as §4

Setting [3] is: three capsule negative Staph. aureus strains.
Setting [4] is: three capsule positive Staph. aureus strains.

One may read the MIC as the lowest concentration that inhibits growth of the organism. For the compound `CC(=O)OCC1=C(C(=O)O)N2C(=O)[C@@H](NC(=O)Cc3cccs3)[C@H]2SC1` [Cephalothin, cephalothin], the MIC with Staphylococcus aureus [1] (setting [3]) stood at 0.188 ± 0.019 µg/mL; with Staphylococcus aureus [1] (setting [4]) it was 0.188 ± 0.019 µg/mL; in the test with Staphylococcus aureus [2] (setting [3]) it was 0.167 ± 0.018 µg/mL; with Staphylococcus aureus [2] (setting [4]), 0.25 µg/mL. Further, the “MIC range (in brackets)” value in the test with Staphylococcus aureus [1] (setting [3]), in the test on Staphylococcus aureus [1] (setting [4]) and in the test with Staphylococcus aureus [2] (setting [3]) was “(0.125-0.25) μg/ml” throughout.
As to `CC1(C)S[C@@H]2[C@H](NC(=O)Cc3ccccc3)C(=O)N2[C@H]1C(=O)O` [Penicillin G, penicillin G], the “MIC range (in brackets)” value with Staphylococcus aureus [1] (setting [3]) is on record as “(0.025-0.05) μg/ml”; in the test on Staphylococcus aureus [1] (setting [4]) it was “(0.025-0.05) μg/ml”; in the test on Staphylococcus aureus [2] (setting [3]), “(0.013-0.05) μg/ml”; in the test on Staphylococcus aureus [2] (setting [4]) it was “(0.013-0.025) μg/ml”. In addition, the “average MIC (+standard deviation)” value amounted to 0.033 ± 0.004 µg/mL in the test on Staphylococcus aureus [1] (setting [3]), 0.035 ± 0.004 µg/mL in the test with Staphylococcus aureus [1] (setting [4]), 0.031 ± 0.005 µg/mL in the test with Staphylococcus aureus [2] (setting [3]) and 0.022 ± 0.002 µg/mL with Staphylococcus aureus [2] (setting [4]).
Take spiramycin: the “MIC range (in brackets)” value is “(10-20) μg/ml” in the test with Staphylococcus aureus [1] (setting [3]), “(10-20) μg/ml” in the test with Staphylococcus aureus [1] (setting [4]), “(6.25-50) μg/ml” with Staphylococcus aureus [2] (setting [3]) and “(12.5-50) μg/ml” in the test on Staphylococcus aureus [2] (setting [4]). For the same compound, the “average MIC (+standard deviation)” value with Staphylococcus aureus [1] (setting [3]) came to 15 ± 1.5 µg/mL; in the test on Staphylococcus aureus [1] (setting [4]), 15.83 ± 1.49 µg/mL; in the test with Staphylococcus aureus [2] (setting [3]), 25.52 ± 4.82 µg/mL; in the test on Staphylococcus aureus [2] (setting [4]), 25 ± 3.77 µg/mL.
As to `CC1(C)S[C@@H]2[C@H](NC(=O)[C@H](N)c3ccccc3)C(=O)N2[C@H]1C(=O)O` [Ampicillin, ampicillin], the MIC in the test on Staphylococcus aureus [1] (setting [3]) stood at 0.198 ± 0.018 µg/mL; in the test on Staphylococcus aureus [1] (setting [4]), 0.188 ± 0.019 µg/mL; with Staphylococcus aureus [2] (setting [3]) it was 0.104 ± 0.009 µg/mL; with Staphylococcus aureus [2] (setting [4]) it was 0.12 ± 0.005 µg/mL.
